Data: patent US4379917A, “6"-(Substituted)-apramycin antibiotic derivatives and intermediates and starting materials therefor” (Eli Lilly and Company, priority 1981, dated 1983)
Converted amounts (≈) assume the structure as drawn. Like-named read-outs stand apart in the source and are kept apart here.

How the values were obtained:
[1] = tested on: Enterobacter cloacae EB24; experiment: MIC by standard agar dilution test; format: cell-based
[2] = tested on: Pseudomonas aeruginosa Ps9; experiment: MIC by standard agar dilution test; format: cell-based; settings: PS9, read-out: Minimum Inhibitory Concentration
[3] = tested on: Salmonella typhosa SA12; experiment: MIC by standard agar dilution test; format: cell-based; settings: Salmonella enterica, read-out: Minimum Inhibitory Concentration
[4] = tested on: Staphylococcus aureus 3055; experiment: MIC by standard agar dilution test; format: cell-based
[5] = tested on: Pseudomonas aeruginosa X528; experiment: MIC by standard agar dilution test; format: cell-based; settings: X528, read-out: Minimum Inhibitory Concentration
[6] = tested on: Serratia marcescens X99; experiment: MIC by standard agar dilution test; format: cell-based
[7] = tested on: Enterobacter aerogenes EB17; experiment: MIC by standard agar dilution test; format: cell-based; settings: Klebsiella aerogenes, EB17, read-out: Minimum Inhibitory Concentration
[8] = tested on: Pseudomonas aeruginosa Ps25; experiment: MIC by standard agar dilution test; format: cell-based; settings: PS25, read-out: Minimum Inhibitory Concentration
[9] = tested on: Proteus inconstans PV25; experiment: MIC by standard agar dilution test; format: cell-based; settings: Providencia alcalifaciens
[10] = tested on: Proteus morganii PR15; experiment: MIC by standard agar dilution test; format: cell-based; settings: Morganella morganii, PR15; Table II; agar dilution; read-out: Minimum Inhibitory Concentration
[11] = tested on: Klebsiella pneumoniae KL14; experiment: MIC by standard agar dilution test; format: cell-based; settings: KL14, read-out: Minimum Inhibitory Concentration
[12] = tested on: Pseudomonas aeruginosa X48; experiment: MIC by standard agar dilution test; format: cell-based; settings: X48, read-out: Minimum Inhibitory Concentration
[13] = tested on: Bordetella bronchiseptica 16; experiment: MIC by standard agar dilution test; format: cell-based; settings: Bordetella bronchiseptica, 16, read-out: Minimum Inhibitory Concentration
[14] = tested on: Escherichia coli EC14; experiment: MIC by standard agar dilution test; format: cell-based
[15] = tested on: Enterobacter cloacae EN453; experiment: MIC by standard agar dilution test; format: cell-based
[16] = tested on: Klebsiella pneumoniae KL2; experiment: MIC by standard agar dilution test; format: cell-based
[17] = tested on: Proteus morganii PR2; experiment: MIC by standard agar dilution test; format: cell-based; settings: Morganella morganii
[18] = tested on: Pseudomonas aeruginosa Ps15; experiment: MIC by standard agar dilution test; format: cell-based; settings: PS15, read-out: Minimum Inhibitory Concentration
[19] = tested on: Pseudomonas solanacearum X185; experiment: microbe, parasite or virus in culture; format: cell-based; settings: Ralstonia solanacearum, X185, read-out: Minimum Inhibitory Concentration
[20] = tested on: Proteus morganii PR1; experiment: MIC by standard agar dilution test; format: cell-based; settings: Morganella morganii
[21] = tested on: Pseudomonas aeruginosa PI23; experiment: MIC by standard agar dilution test; format: cell-based; settings: PI23, read-out: Minimum Inhibitory Concentration
[22] = tested on: Pseudomonas aeruginosa SF-2; experiment: MIC by standard agar dilution test; format: cell-based
[23] = tested on: Pseudomonas aeruginosa X239; experiment: MIC by standard agar dilution test; format: cell-based
[24] = tested on: Salmonella typhimurium; experiment: MIC by standard agar dilution test; format: cell-based; settings: Salmonella enterica, read-out: Minimum Inhibitory Concentration
[25] = tested on: Staphylococcus aureus 3074; experiment: MIC by standard agar dilution test; format: cell-based; settings: Table II, read-out: Minimum Inhibitory Concentration
Source text: (§1) The antibacterial activity of the antibiotic compounds of this invention is illustrated by the following in vitro and in vivo test data obtained with representative compounds. In Tables I and II the minimum inhibitory concentration (MIC) for representative compounds against a wide range of gram-positive and gram-negative bacteria is presented. The MIC values were obtained by the standard agar dilution test.

[26] = tested on: Erwinia amylovora; experiment: MIC by standard agar dilution test; format: cell-based; settings: Table II, read-out: Minimum Inhibitory Concentration
Source text: as §1

[27] = tested on: Citrobacter freundii CF17; experiment: MIC by standard agar dilution test; format: cell-based; settings: CF17, Table II, agar dilution, read-out: Minimum Inhibitory Concentration
[28] = tested on: Streptococcus faecalis X66; experiment: MIC by standard agar dilution test; format: cell-based; settings: Enterococcus faecalis, X66; Table II; agar dilution; read-out: Minimum Inhibitory Concentration
[29] = tested on: Enterobacter aerogenes EB6; experiment: MIC by standard agar dilution test; format: cell-based; settings: Klebsiella aerogenes
[30] = tested on: Pseudomonas aeruginosa 4276; experiment: MIC by standard agar dilution test; format: cell-based
[31] = tested on: Serratia marcescens SE3; experiment: MIC by standard agar dilution test; format: cell-based
[32] = tested on: Pseudomonas aeruginosa X239; experiment: Subcutaneous therapy of Pseudomonas aeruginosa X239 infections in mice; format: in vivo; settings: X239, sc, 2 subcutaneous doses at 1 and 5 hours post infection, dose to protect 50 percent of test animals, read-out: Effective Dose (ED50)
Procedure: Table III illustrates the effective dose (ED50, effective dose to protect 50 percent of the test animals) for representative compounds of this invention against an experimental bacterial infection in mice. | *mg/kg × 2 subcutaneous doses at 1 and 5 hours post infections The ED50 values were determined as described by W. E. Wick et al., Journal of Bacteriolocy, 81 [No. 2], 233-235 (1961).

[33] = tested on: Serratia marcescens SE2; experiment: MIC by standard agar dilution test; format: cell-based
[34] = EB24, read-out: Minimum Inhibitory Concentration
[35] = X99, read-out: Minimum Inhibitory Concentration
[36] = PV25, read-out: Minimum Inhibitory Concentration
[37] = EN453, read-out: Minimum Inhibitory Concentration
[38] = KL2, read-out: Minimum Inhibitory Concentration
[39] = PR2, Table 1, agar dilution, read-out: Minimum Inhibitory Concentration
[40] = PR1, read-out: Minimum Inhibitory Concentration
[41] = X239, read-out: Minimum Inhibitory Concentration, Table 1
[42] = EB6, read-out: Minimum Inhibitory Concentration
[43] = SE3, read-out: Minimum Inhibitory Concentration, Table 1
[44] = SE3, read-out: Minimum Inhibitory Concentration, Table II
[45] = SE2, read-out: Minimum Inhibitory Concentration
[46] = SF2, read-out: Minimum Inhibitory Concentration
[47] = Pseudomonas aeruginosa, 4276, read-out: Minimum Inhibitory Concentration

Row | Structure (SMILES) | MIC [1, 34] [µg/mL] | MIC [2] [µg/mL] | MIC [3] [µg/mL] | MIC [5] [µg/mL] | MIC [6, 35] [µg/mL] | MIC [8] [µg/mL] | MIC [9, 36] [µg/mL] | MIC [10] [µg/mL] | MIC [11] [µg/mL] | MIC [12] [µg/mL] | MIC [13] [µg/mL] | MIC [15, 37] [µg/mL] | MIC [16, 38] [µg/mL] | MIC [17, 39] [µg/mL] | MIC [18] [µg/mL] | MIC [19] [µg/mL] | MIC [20, 40] [µg/mL] | MIC [21] [µg/mL] | MIC [23, 41] [µg/mL] | MIC [25] [µg/mL] | other results
1 | CN[C@@H]1[C@@H](O[C@H]2O[C@H](C)[C@@H](N)[C@H](O)[C@H]2O)O[C@H]2C[C@@H](N)[C@@H](O[C@H]3[C@H](O)[C@@H](O)[C@H](N)C[C@@H]3N)O[C@@H]2[C@@H]1O [Test Compound 4, 6"-Deoxyapramycin] | 4 (≈ 7.64 µM) | 16 (≈ 30.6 µM) | 4 (≈ 7.64 µM) | 16 (≈ 30.6 µM) | 2 (≈ 3.82 µM) | 4 (≈ 7.64 µM) | 2 (≈ 3.82 µM) | 8 (≈ 15.3 µM) | 4 (≈ 7.64 µM) | 4 (≈ 7.64 µM) | 16 (≈ 30.6 µM) | 4 (≈ 7.64 µM) | 4 (≈ 7.64 µM) | 8 (≈ 15.3 µM) | 4 (≈ 7.64 µM) | 4 (≈ 7.64 µM) | 4 (≈ 7.64 µM) | > 128 | 4 (≈ 7.64 µM) | 1 (≈ 1.91 µM) | MIC ([4]; Staphylococcus aureus, 3055, read-out: Minimum Inhibitory Concentration): 2 µg/mL (≈ 3.82 µM); MIC [7]: 4 µg/mL (≈ 7.64 µM); MIC ([14]; EC14, read-out: Minimum Inhibitory Concentration): 16 µg/mL (≈ 30.6 µM); MIC ([22]; SF2, Table 1, agar dilution, read-out: Minimum Inhibitory Concentration): 8 µg/mL (≈ 15.3 µM); MIC ([23]; X239, read-out: Minimum Inhibitory Concentration, Table II): 2 µg/mL (≈ 3.82 µM); MIC [24]: 16 µg/mL (≈ 30.6 µM); MIC [26]: 2 µg/mL (≈ 3.82 µM); MIC [27]: 8 µg/mL (≈ 15.3 µM); MIC [28]: 8 µg/mL (≈ 15.3 µM); MIC [29, 42]: 4 µg/mL (≈ 7.64 µM); MIC ([30]; Pseudomonas aeruginosa, 4276, Table 1, agar dilution, read-out: Minimum Inhibitory Concentration): 8 µg/mL (≈ 15.3 µM); MIC [31, 43]: 4 µg/mL (≈ 7.64 µM); MIC [31, 44]: 16 µg/mL (≈ 30.6 µM); ED50 [32]: 10.9 mg/kg; MIC [33, 45]: 4 µg/mL (≈ 7.64 µM)
2 | CN[C@@H]1[C@@H](O[C@H]2O[C@H](COS(=O)(=O)c3ccc(C)cc3)[C@@H](N)[C@H](O)[C@H]2O)O[C@H]2C[C@@H](N)[C@@H](O[C@H]3[C@H](O)[C@@H](O)[C@H](N)C[C@@H]3N)O[C@@H]2[C@@H]1O [Test Compound 2, 6"-O-(Para-toluenesulfonyl)apramycin] | – | > 128 | 1 (≈ 1.44 µM) | > 128 | – | > 128 | – | 16 (≈ 23.1 µM) | 2 (≈ 2.88 µM) | > 128 | 64 (≈ 92.2 µM) | – | – | 16 (≈ 23.1 µM) | > 128 | 1 (≈ 1.44 µM) | – | > 128 | > 128 | 2 (≈ 2.88 µM) | MIC ([1]; EB24, Table 1, agar dilution, read-out: Minimum Inhibitory Concentration): 16 µg/mL (≈ 23.1 µM); MIC ([4]; Staphylococcus aureus, 3055, Table II, agar dilution, read-out: Minimum Inhibitory Concentration): < 0.5 µg/mL; MIC ([6]; X99, Table 1, agar dilution, read-out: Minimum Inhibitory Concentration): 16 µg/mL (≈ 23.1 µM); MIC ([9]; PV25, Table 1, agar dilution, read-out: Minimum Inhibitory Concentration): 16 µg/mL (≈ 23.1 µM); MIC ([14]; EC14, Table II, agar dilution, read-out: Minimum Inhibitory Concentration): 4 µg/mL (≈ 5.77 µM); MIC ([15]; EN453, Table 1, agar dilution, read-out: Minimum Inhibitory Concentration): 16 µg/mL (≈ 23.1 µM); MIC ([16]; KL2, Table 1, agar dilution, read-out: Minimum Inhibitory Concentration): 16 µg/mL (≈ 23.1 µM); MIC ([20]; PR1, Table 1, agar dilution, read-out: Minimum Inhibitory Concentration): 16 µg/mL (≈ 23.1 µM); MIC [22, 46]: > 128 µg/mL; MIC ([23]; X239, Table II, read-out: Minimum Inhibitory Concentration): 16 µg/mL (≈ 23.1 µM); MIC ([24]; Table II, agar dilution): 4 µg/mL (≈ 5.77 µM); MIC [26]: 2 µg/mL (≈ 2.88 µM); MIC [27]: 4 µg/mL (≈ 5.77 µM); MIC [28]: 16 µg/mL (≈ 23.1 µM); MIC ([29]; EB6, Table 1, agar dilution, read-out: Minimum Inhibitory Concentration): 16 µg/mL (≈ 23.1 µM); MIC [30, 47]: > 128 µg/mL; MIC ([31]; SE3, Table 1, read-out: Minimum Inhibitory Concentration): 16 µg/mL (≈ 23.1 µM); MIC [31, 44]: 32 µg/mL (≈ 46.1 µM); MIC ([33]; SE2, Table 1, agar dilution, read-out: Minimum Inhibitory Concentration): 16 µg/mL (≈ 23.1 µM)
3 | CN[C@@H]1[C@@H](O[C@H]2O[C@H](CO[Si](C)(C)C(C)(C)C)[C@@H](N)[C@H](O)[C@H]2O)O[C@H]2C[C@@H](N)[C@@H](O[C@H]3[C@H](O)[C@@H](O)[C@H](N)C[C@@H]3N)O[C@@H]2[C@@H]1O [Test Compound 6, 6"-O-(tert-Butyldimethylsilyl)Apramycin] | 16 (≈ 24.5 µM) | > 128 | – | 64 (≈ 97.9 µM) | 32 (≈ 48.9 µM) | 128 (≈ 196 µM) | 16 (≈ 24.5 µM) | – | – | > 128 | – | 32 (≈ 48.9 µM) | 32 (≈ 48.9 µM) | – | 128 (≈ 196 µM) | – | 32 (≈ 48.9 µM) | > 128 | 128 (≈ 196 µM) | – | MIC ([17]; PR2, read-out: Minimum Inhibitory Concentration): 64 µg/mL (≈ 97.9 µM); MIC [22, 46]: 128 µg/mL (≈ 196 µM); MIC [29, 42]: 32 µg/mL (≈ 48.9 µM); MIC [30, 47]: 128 µg/mL (≈ 196 µM); MIC [31, 43]: 64 µg/mL (≈ 97.9 µM); MIC [33, 45]: 64 µg/mL (≈ 97.9 µM)
